Measured values: patent US6156700A, “3-(1,2-Benzisothiazol- and isoxazol-5-yl)-2,4(1H,3H)-pyrimidinedione or thione and 3-(1,2-benzisothiazol- and isoxazol-5-yl)-4(3H)-pyrimidinone or thione herbicidal agents” (American Cyanmid Company, priority 1998, dated 2000)
Several values for one entry are separate records, joined by “and”; a condition that tells them apart may be missing. Equal values may be shown once.

Legend:
[1] = system: ABUTH; assay: Preemergence herbicidal evaluation; type: in vivo; set-up: scale not given here
[2] = system: TRZAWR; assay: Preemergence herbicidal evaluation; type: in vivo; set-up: scale not given here
[3] = system: ZEAMX; assay: Preemergence herbicidal evaluation; type: in vivo; set-up: scale not given here
[4] = system: ECHCG; assay: Preemergence herbicidal evaluation; type: in vivo; set-up: scale not given here
[5] = system: ABUTH; assay: Postemergence herbicidal evaluation; type: in vivo
[6] = system: ZEAMX; assay: Postemergence herbicidal evaluation; type: in vivo
[7] = system: GLXMAW; assay: Postemergence herbicidal evaluation; type: in vivo
[8] = system: ECHCG; assay: Postemergence herbicidal evaluation; type: in vivo
[9] = system: IPOHE; assay: Postemergence herbicidal evaluation; type: in vivo
[10] = system: SETVI; assay: Postemergence herbicidal evaluation; type: in vivo
[11] = system: GALAP; assay: Postemergence herbicidal evaluation; type: in vivo
[12] = system: TRZAWR; assay: Postemergence herbicidal evaluation; type: in vivo
[13] = system: ORYSAT; assay: Postemergence herbicidal evaluation; type: in vivo, Oryza sativa
[14] = system: GLXMA; assay: Postemergence herbicidal evaluation; type: in vivo

O=C1C2=C(CCCC2)C(=O)N1c1ccc2snc(-c3ccccc3)c2c1 [A]
herbicidal effect rating ([1]; 0.0620-0.0630 kg/ha): 0.0 | herbicidal effect rating ([1]; 0.1250 kg/ha): 5.0 | herbicidal effect rating ([1]; 0.2500 kg/ha): 6.0 | herbicidal effect rating ([1]; 0.5000 kg/ha): 7.0 | herbicidal effect rating ([2]; 0.0156-0.0160 kg/ha): 0.0 | herbicidal effect rating ([2]; 0.0313-0.0320 kg/ha): 0.0 | herbicidal effect rating ([2]; 0.0620-0.0630 kg/ha): 0.0 | herbicidal effect rating ([2]; 0.1250 kg/ha): 0.0 | herbicidal effect rating ([3]; 0.0156-0.0160 kg/ha): 0.0 | herbicidal effect rating ([3]; 0.0313-0.0320 kg/ha): 0.0 | herbicidal effect rating ([3]; 0.0620-0.0630 kg/ha): 0.0 | herbicidal effect rating ([3]; 0.1250 kg/ha): 0.0 | herbicidal effect rating ([3]; 0.2500 kg/ha): 0.0 | herbicidal effect rating ([3]; 0.5000 kg/ha): 0.0 | herbicidal effect rating ([4]; 0.0156-0.0160 kg/ha): 0.0 | herbicidal effect rating ([4]; 0.0313-0.0320 kg/ha): 0.0 | herbicidal effect rating ([4]; 0.0620-0.0630 kg/ha): 0.0 | herbicidal effect rating ([4]; 0.1250 kg/ha): 0.0 | herbicidal effect rating ([4]; 0.2500 kg/ha): 0.0 | herbicidal effect rating ([4]; 0.5000 kg/ha): 0.0 | herbicidal effect rating ([5]; 0.0313-0.0320 kg/ha): 9.0 and 7.8 | herbicidal effect rating ([5]; 0.0625-0.0640 kg/ha): 8.6 | herbicidal effect rating ([5]; 0.1250 kg/ha): 9.0 | herbicidal effect rating ([5]; 0.2500 kg/ha): 9.0 | herbicidal effect rating ([5]; 0.5000 kg/ha): 9.0 | herbicidal effect rating ([6]; 0.0313-0.0320 kg/ha): 4.0 and 3.4 | herbicidal effect rating ([6]; 0.0625-0.0640 kg/ha): 3.7 | herbicidal effect rating ([6]; 0.1250 kg/ha): 4.2 | herbicidal effect rating ([6]; 0.2500 kg/ha): 3.8 | herbicidal effect rating ([6]; 0.5000 kg/ha): 4.0 | herbicidal effect rating ([7]; 0.0157-0.0160 kg/ha): 4.0 | herbicidal effect rating ([7]; 0.0313-0.0320 kg/ha): 4.0 | herbicidal effect rating ([7]; 0.0625-0.0640 kg/ha): 4.6 | herbicidal effect rating ([7]; 0.1250 kg/ha): 4.6 | herbicidal effect rating ([7]; 0.2500 kg/ha): 4.6 | herbicidal effect rating ([7]; 0.5000 kg/ha): 4.5 | herbicidal effect rating ([8]; 0.0157-0.0160 kg/ha): 1.0 and 0.5 | herbicidal effect rating ([8]; 0.0313-0.0320 kg/ha): 1.0 and 0.6 | herbicidal effect rating ([8]; 0.0625-0.0640 kg/ha): 1.0 | herbicidal effect rating ([8]; 0.1250 kg/ha): 1.8 | herbicidal effect rating ([8]; 0.2500 kg/ha): 2.7 | herbicidal effect rating ([8]; 0.5000 kg/ha): 2.0 | herbicidal effect rating ([9]; 0.0157-0.0160 kg/ha): 5.0 | herbicidal effect rating ([9]; 0.0313-0.0320 kg/ha): 5.7 | herbicidal effect rating ([9]; 0.0625-0.0640 kg/ha): 6.0 | herbicidal effect rating ([9]; 0.1250 kg/ha): 7.5 | herbicidal effect rating ([10]; 0.0157-0.0160 kg/ha): 1.0 and 1.2 | herbicidal effect rating ([10]; 0.0313-0.0320 kg/ha): 1.0 and 1.6 | herbicidal effect rating ([10]; 0.0625-0.0640 kg/ha): 2.1 | herbicidal effect rating ([10]; 0.1250 kg/ha): 3.0 | herbicidal effect rating ([10]; 0.2500 kg/ha): 2.7 | herbicidal effect rating ([10]; 0.5000 kg/ha): 2.0 | herbicidal effect rating ([11]; 0.0157-0.0160 kg/ha): 5.5 and 3.8 | herbicidal effect rating ([11]; 0.0625-0.0640 kg/ha): 5.4 | herbicidal effect rating ([11]; 0.1250 kg/ha): 6.4 | herbicidal effect rating ([11]; 0.2500 kg/ha): 8.3 | herbicidal effect rating ([11]; 0.5000 kg/ha): 9.0 | herbicidal effect rating ([12]; 0.0157-0.0160 kg/ha): 2 | herbicidal effect rating ([12]; 0.0313-0.0320 kg/ha): 3.8 | herbicidal effect rating ([12]; 0.0625-0.0640 kg/ha): 4.0 | herbicidal effect rating ([12]; 0.1250 kg/ha): 4.3 | herbicidal effect rating ([13]; 0.0157-0.0160 kg/ha): 2.0 | herbicidal effect rating ([13]; 0.0313-0.0320 kg/ha): 2.3 and 2.1 | herbicidal effect rating ([13]; 0.0625-0.0640 kg/ha): 2.6 | herbicidal effect rating ([13]; 0.1250 kg/ha): 2.9 | herbicidal effect rating ([13]; 0.2500 kg/ha): 3.6 | herbicidal effect rating ([13]; 0.5000 kg/ha): 4.5 | herbicidal effect rating ([14]; 0.0157-0.0160 kg/ha): 3.5 | herbicidal effect rating ([14]; 0.0313-0.0320 kg/ha): 4.3
